# Assay results taken from PubChem BioAssay (NCI).
#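 All cell lines were grown in 96-well plates and treated with compound for 48 hours. TGI marks complete inhibition of growth.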 The source made the active and inactive calls. Cut-off read from the data, not from the text of the source: active = GI50 below about 0.43 µM; inactive = the rest.
# How the values were obtained:
# Experiment in all cases: NCI anticancer screen, dose series, 48 h
# TK-10 renal = tested on: TK-10 renal
# CCRF-CEM leukemia = tested on: CCRF-CEM leukemia
# OVCAR-3 ovarian = tested on: OVCAR-3 ovarian
# OVCAR-8 ovarian = tested on: OVCAR-8 ovarian
# SW-620 colon = tested on: SW-620 colon
# SF-295 CNS = tested on: SF-295 CNS
# HL-60(TB) leukemia = tested on: HL-60(TB) leukemia
# 786-0 renal = tested on: 786-0 renal
# NCI-H460 lung = tested on: NCI-H460 lung
# DU-145 prostate = tested on: DU-145 prostate
# HCT-116 colon = tested on: HCT-116 colon
# CAKI-1 renal = tested on: CAKI-1 renal
# COLO 205 colon = tested on: COLO 205 colon
# NCI/ADR-RES ovarian = tested on: NCI/ADR-RES ovarian
# PC-3 prostate = tested on: PC-3 prostate
# HS 578T breast = tested on: HS 578T breast
# SNB-75 CNS = tested on: SNB-75 CNS
# SNB-19 CNS = tested on: SNB-19 CNS
# OVCAR-5 ovarian = tested on: OVCAR-5 ovarian
# K-562 leukemia = tested on: K-562 leukemia
# HCT-15 colon = tested on: HCT-15 colon
# NCI-H226 lung = tested on: NCI-H226 lung
# UO-31 renal = tested on: UO-31 renal
# NCI-H522 lung = tested on: NCI-H522 lung
# HT29 colon = tested on: HT29 colon
# ACHN renal = tested on: ACHN renal
# SK-MEL-5 melanoma = tested on: SK-MEL-5 melanoma
# UACC-257 melanoma = tested on: UACC-257 melanoma
# EKVX NSCLC = tested on: EKVX NSCLC
# M14 melanoma = tested on: M14 melanoma
# T-47D breast = tested on: T-47D breast
# BT-549 breast = tested on: BT-549 breast
# SR leukemia = tested on: SR leukemia
# UACC-62 melanoma = tested on: UACC-62 melanoma
# U251 CNS = tested on: U251 CNS
# NCI-H23 lung = tested on: NCI-H23 lung
# SK-OV-3 ovarian = tested on: SK-OV-3 ovarian
# SK-MEL-2 melanoma = tested on: SK-MEL-2 melanoma
# OVCAR-4 ovarian = tested on: OVCAR-4 ovarian
# A549 NSCLC = tested on: A549 NSCLC
# MOLT-4 leukemia = tested on: MOLT-4 leukemia
# HOP-92 NSCLC = tested on: HOP-92 NSCLC
# MCF7 breast = tested on: MCF7 breast
# RXF 393 renal = tested on: RXF 393 renal
# MALME-3M melanoma = tested on: MALME-3M melanoma
# KM12 colon = tested on: KM12 colon
# IGROV1 ovarian = tested on: IGROV1 ovarian
# MDA-N = tested on: MDA-N
# SF-268 CNS = tested on: SF-268 CNS
# SN12C renal = tested on: SN12C renal
# LOX IMVI melanoma = tested on: LOX IMVI melanoma
# RPMI-8226 leukemia = tested on: RPMI-8226 leukemia
# A498 renal = tested on: A498 renal
# MDA-MB-435 = tested on: MDA-MB-435
# HOP-62 NSCLC = tested on: HOP-62 NSCLC
# SF-539 CNS = tested on: SF-539 CNS
# MDA-MB-231 breast = tested on: MDA-MB-231 breast
# SK-MEL-28 melanoma = tested on: SK-MEL-28 melanoma
# HCC-2998 colon = tested on: HCC-2998 colon
compound,measurement,setting,value
CCOC(=O)CCC(C(=O)OCC)n1nnc2ccc(Nc3c(C)[n+]([O-])c4ccc(Cl)cc4[n+]3[O-])cc21 (configuration not stated),TGI,TK-10 renal,> 100 µM
same,TGI,CCRF-CEM leukemia,> 100 µM
same,TGI,OVCAR-3 ovarian,> 100 µM
same,TGI,OVCAR-8 ovarian,> 100 µM
same,TGI,SW-620 colon,> 100 µM
same,TGI,SF-295 CNS,> 100 µM
same,TGI,HL-60(TB) leukemia,> 100 µM
same,TGI,786-0 renal,> 100 µM
same,TGI,NCI-H460 lung,> 100 µM
same,TGI,DU-145 prostate,> 100 µM
same,TGI,HCT-116 colon,> 100 µM
same,TGI,CAKI-1 renal,> 100 µM
same,TGI,COLO 205 colon,> 100 µM
same,TGI,NCI/ADR-RES ovarian,> 100 µM
same,TGI,PC-3 prostate,> 100 µM
same,TGI,HS 578T breast,> 100 µM
same,TGI,SNB-75 CNS,> 100 µM
same,TGI,SNB-19 CNS,> 100 µM
same,TGI,OVCAR-5 ovarian,> 100 µM
same,TGI,K-562 leukemia,> 100 µM
same,TGI,HCT-15 colon,> 100 µM
same,TGI,NCI-H226 lung,83.7 µM
same,TGI,UO-31 renal,> 100 µM
same,TGI,NCI-H522 lung,> 100 µM
same,TGI,HT29 colon,> 100 µM
same,TGI,ACHN renal,> 100 µM
same,TGI,SK-MEL-5 melanoma,> 100 µM
same,TGI,UACC-257 melanoma,37.1 µM
same,TGI,EKVX NSCLC,69.3 µM
same,TGI,M14 melanoma,> 100 µM
same,TGI,T-47D breast,> 100 µM
same,TGI,BT-549 breast,> 100 µM
same,TGI,SR leukemia,> 100 µM
same,TGI,UACC-62 melanoma,> 100 µM
same,TGI,U251 CNS,> 100 µM
same,TGI,NCI-H23 lung,> 100 µM
same,TGI,SK-OV-3 ovarian,> 100 µM
same,TGI,SK-MEL-2 melanoma,> 100 µM
same,TGI,OVCAR-4 ovarian,> 100 µM
same,TGI,A549 NSCLC,> 100 µM
same,TGI,MOLT-4 leukemia,> 100 µM
same,TGI,HOP-92 NSCLC,> 100 µM
same,TGI,MCF7 breast,50.4 µM
same,TGI,RXF 393 renal,> 100 µM
same,TGI,MALME-3M melanoma,> 100 µM
same,TGI,KM12 colon,> 100 µM
same,TGI,IGROV1 ovarian,> 100 µM
same,TGI,MDA-N,> 100 µM
same,TGI,SF-268 CNS,> 100 µM
same,TGI,SN12C renal,> 100 µM
same,TGI,LOX IMVI melanoma,> 100 µM
same,TGI,RPMI-8226 leukemia,88.3 µM
same,TGI,A498 renal,> 100 µM
same,TGI,MDA-MB-435,> 100 µM
same,TGI,HOP-62 NSCLC,> 100 µM
same,TGI,SF-539 CNS,> 100 µM
COc1ccc2c(c1)CC[C@@H]1[C@@H]2CC[C@]2(C)C(=O)/C(=C/c3ccc(C#N)cc3)C[C@@H]12,TGI,TK-10 renal,> 100 µM
same,TGI,CCRF-CEM leukemia,> 100 µM
same,TGI,OVCAR-8 ovarian,> 100 µM
same,TGI,SW-620 colon,> 100 µM
same,TGI,SF-295 CNS,> 100 µM
same,TGI,MDA-MB-231 breast,> 100 µM
same,TGI,786-0 renal,> 100 µM
same,TGI,NCI-H460 lung,> 100 µM
same,TGI,DU-145 prostate,> 100 µM
same,TGI,HCT-116 colon,> 100 µM
same,TGI,CAKI-1 renal,> 100 µM
same,TGI,COLO 205 colon,> 100 µM
same,TGI,NCI/ADR-RES ovarian,> 100 µM
same,TGI,PC-3 prostate,> 100 µM
same,TGI,SK-MEL-28 melanoma,> 100 µM
same,TGI,HCC-2998 colon,> 100 µM
same,TGI,SNB-75 CNS,> 100 µM
same,TGI,SNB-19 CNS,> 100 µM
same,TGI,OVCAR-5 ovarian,> 100 µM
same,TGI,K-562 leukemia,> 100 µM
same,TGI,HCT-15 colon,> 100 µM
same,TGI,NCI-H226 lung,> 100 µM
same,TGI,UO-31 renal,> 100 µM
same,TGI,NCI-H522 lung,> 100 µM
same,TGI,ACHN renal,> 100 µM
same,TGI,SK-MEL-5 melanoma,> 100 µM
same,TGI,UACC-257 melanoma,> 100 µM
same,TGI,EKVX NSCLC,> 100 µM
same,TGI,M14 melanoma,> 100 µM
same,TGI,T-47D breast,> 100 µM
same,TGI,BT-549 breast,> 100 µM
same,TGI,SR leukemia,> 100 µM
same,TGI,UACC-62 melanoma,> 100 µM
same,TGI,U251 CNS,> 100 µM
same,TGI,NCI-H23 lung,> 100 µM
same,TGI,SK-OV-3 ovarian,> 100 µM
same,TGI,SK-MEL-2 melanoma,> 100 µM
same,TGI,OVCAR-4 ovarian,> 100 µM
same,TGI,A549 NSCLC,> 100 µM
same,TGI,MOLT-4 leukemia,> 100 µM
same,TGI,MCF7 breast,> 100 µM
same,TGI,RXF 393 renal,> 100 µM
same,TGI,MALME-3M melanoma,> 100 µM
same,TGI,KM12 colon,> 100 µM
same,TGI,IGROV1 ovarian,> 100 µM
same,TGI,MDA-N,> 100 µM
same,TGI,SF-268 CNS,> 100 µM
same,TGI,SN12C renal,> 100 µM
same,TGI,LOX IMVI melanoma,> 100 µM
same,TGI,RPMI-8226 leukemia,> 100 µM
same,TGI,A498 renal,> 100 µM
same,TGI,MDA-MB-435,> 100 µM
same,TGI,HOP-62 NSCLC,> 100 µM
same,TGI,SF-539 CNS,> 100 µM
COC(=O)c1nc2c(C)c(O)c(Oc3c(C)c(O)c(O)c([C@H](C)CCC=C(C)C)c3O)c([C@H](C)CCC=C(C)C)c2o1,outcome,TK-10 renal,inactive
same,outcome,CCRF-CEM leukemia,inactive
same,outcome,OVCAR-3 ovarian,inactive
same,outcome,OVCAR-8 ovarian,inactive
same,outcome,SW-620 colon,inactive
same,outcome,SF-295 CNS,inactive
same,outcome,HL-60(TB) leukemia,inactive
same,outcome,786-0 renal,inactive
same,outcome,NCI-H460 lung,inactive
same,outcome,DU-145 prostate,inactive
same,outcome,HCT-116 colon,inactive
same,outcome,CAKI-1 renal,inactive
same,outcome,COLO 205 colon,inactive
same,outcome,NCI/ADR-RES ovarian,inactive
same,outcome,PC-3 prostate,inactive
same,outcome,HS 578T breast,inactive
same,outcome,SK-MEL-28 melanoma,inactive
same,outcome,HCC-2998 colon,inactive
same,outcome,SNB-75 CNS,inactive
same,outcome,SNB-19 CNS,inactive
same,outcome,OVCAR-5 ovarian,inactive
same,outcome,K-562 leukemia,inactive
same,outcome,HCT-15 colon,inactive
same,outcome,NCI-H226 lung,inactive
same,outcome,UO-31 renal,inactive
same,outcome,HT29 colon,inactive
same,outcome,ACHN renal,inactive
same,outcome,UACC-257 melanoma,inactive
same,outcome,EKVX NSCLC,inactive
same,outcome,M14 melanoma,inactive
same,outcome,T-47D breast,inactive
same,outcome,BT-549 breast,inactive
same,outcome,SR leukemia,inactive
same,outcome,NCI-H23 lung,inactive
same,outcome,SK-OV-3 ovarian,inactive
same,outcome,SK-MEL-2 melanoma,inactive
same,outcome,OVCAR-4 ovarian,inactive
same,outcome,A549 NSCLC,inactive
same,outcome,MOLT-4 leukemia,inactive
same,outcome,HOP-92 NSCLC,inactive
same,outcome,MCF7 breast,inactive
same,outcome,MALME-3M melanoma,inactive
same,outcome,KM12 colon,inactive
same,outcome,IGROV1 ovarian,inactive
same,outcome,MDA-N,inactive
same,outcome,SF-268 CNS,inactive
same,outcome,SN12C renal,inactive
same,outcome,LOX IMVI melanoma,inactive
same,outcome,RPMI-8226 leukemia,inactive
same,outcome,A498 renal,inactive
same,outcome,MDA-MB-435,inactive
same,outcome,SF-539 CNS,inactive
